ChEMBL document CHEMBL3861980, “Discovery of Benzothiazole Scaffold-Based DNA Gyrase B Inhibitors” (J Med Chem, 2016)

What was measured:
DNA gyrase subunit B [1] = biological target: DNA gyrase subunit B (Escherichia coli, UniProt P0AES6)
Description: Inhibition of Escherichia coli DNA gyrase B ATP binding site assessed as reduction in supercoiling of relaxed pNO1 DNA after 30 mins in presence of biotinylated oligonucleotide by sybrGOLD staining based fluorescence assay

DNA gyrase subunit B [2] = biological target: DNA gyrase subunit B (Staphylococcus aureus, UniProt P0A0K8)
Description: Inhibition of Staphylococcus aureus DNA gyrase B ATP binding site assessed as reduction in supercoiling of relaxed pNO1 DNA after 30 mins in presence of biotinylated oligonucleotide by sybrGOLD staining based fluorescence assay

Enterococcus faecalis = test: microbe, parasite or virus in culture; settings: ATCC 29212, 24 h, read-out: GI
Description: Growth inhibition of Enterococcus faecalis ATCC 29212 at 50 uM after 24 hrs by broth microdilution method

Escherichia coli [3] = test: Growth inhibition of Escherichia coli ATCC 25922 at 50 uM after 24 hrs by broth microdilution method; assay type: functional; settings: ATCC 25922, 24 h, read-out: GI
Escherichia coli [4] = test: Antibacterial activity against Escherichia coli ECM1194 lacking tolC gene by broth microdilution method; assay type: functional
Escherichia coli [5] = test: Antibacterial activity against wild type Escherichia coli ECM1194 by broth microdilution method; assay type: functional
Pseudomonas aeruginosa = test: Growth inhibition of Pseudomonas aeruginosa ATCC 27853 at 50 uM after 24 hrs by broth microdilution method; assay type: functional; settings: ATCC 27853, 24 h, read-out: GI

Sequence of DNA gyrase subunit B (Staphylococcus aureus, UniProt P0A0K8) (P0A0K8 whole entry): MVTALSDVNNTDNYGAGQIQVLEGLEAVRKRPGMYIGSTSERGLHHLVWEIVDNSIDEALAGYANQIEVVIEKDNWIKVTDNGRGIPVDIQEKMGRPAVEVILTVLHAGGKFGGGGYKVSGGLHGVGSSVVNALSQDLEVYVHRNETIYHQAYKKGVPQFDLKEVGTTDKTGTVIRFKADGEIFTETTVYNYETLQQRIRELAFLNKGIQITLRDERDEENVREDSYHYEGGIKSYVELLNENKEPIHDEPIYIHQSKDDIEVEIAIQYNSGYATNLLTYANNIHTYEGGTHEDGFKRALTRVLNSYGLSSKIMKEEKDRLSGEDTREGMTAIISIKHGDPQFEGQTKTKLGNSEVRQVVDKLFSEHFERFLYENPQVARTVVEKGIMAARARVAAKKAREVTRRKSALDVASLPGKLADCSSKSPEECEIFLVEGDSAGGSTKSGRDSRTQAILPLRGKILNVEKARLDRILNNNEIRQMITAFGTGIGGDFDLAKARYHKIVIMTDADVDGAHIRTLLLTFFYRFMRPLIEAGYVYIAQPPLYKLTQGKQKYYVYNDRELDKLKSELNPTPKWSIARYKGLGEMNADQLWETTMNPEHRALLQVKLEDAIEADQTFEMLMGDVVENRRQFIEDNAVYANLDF

O=C(O)C(=O)Nc1nc2ccc(NC(=O)c3cc(Br)c(Br)[nH]3)cc2s1
IC50 (DNA gyrase subunit B [1]): 0.038 µM
IC50 (DNA gyrase subunit B [2]): > 100 µM

CCOC(=O)C(=O)Nc1nc2ccc(NC(=O)c3cc(Cl)c(Cl)[nH]3)cc2s1
IC50 (DNA gyrase subunit B [1]): 1.8 µM
inhibition of growth at 50 µM (Enterococcus faecalis): 47%
IC50 (DNA gyrase subunit B [2]): > 100 µM

COC(=O)CC(=O)Nc1ccc2nc(NC(=O)c3cc(Br)c(Br)[nH]3)sc2c1
IC50 (DNA gyrase subunit B [1]): 2 µM
IC50 (DNA gyrase subunit B [2]): > 100 µM

CCOC(=O)C(=O)Nc1ccc2nc(NC(=O)c3cc(Cl)c(Cl)[nH]3)sc2c1
IC50 (DNA gyrase subunit B [1]): > 100 µM
IC50 (DNA gyrase subunit B [2]): > 100 µM

O=C(O)CC(=O)Nc1ccc2nc(NC(=O)c3cc(Br)c(Br)[nH]3)sc2c1
inhibition of growth at 50 µM (Escherichia coli [3]): 12%
MIC (Escherichia coli [4]): < 16 mg/L
IC50 (DNA gyrase subunit B [1]): 0.14 µM
inhibition of growth at 50 µM (Enterococcus faecalis): 59%
IC50 (DNA gyrase subunit B [2]): 5.6 µM
MIC (Escherichia coli [5]): > 256 mg/L
inhibition of growth at 50 µM (Pseudomonas aeruginosa): 11%

O=C(O)CCC(=O)Nc1ccc2nc(NC(=O)c3cc(Cl)c(Cl)[nH]3)sc2c1
IC50 (DNA gyrase subunit B [1]): 0.43 µM
IC50 (DNA gyrase subunit B [2]): 94 µM

Nc1ccc2nc(NC(=O)c3cc(Br)c(Br)[nH]3)sc2c1
IC50 (DNA gyrase subunit B [1]): 2 µM
IC50 (DNA gyrase subunit B [2]): > 100 µM

COC(=O)CC(=O)Nc1ccc2nc(NC(=O)c3cc(Cl)c(Cl)[nH]3)sc2c1
IC50 (DNA gyrase subunit B [1]): 0.22 µM
IC50 (DNA gyrase subunit B [2]): > 100 µM

COC(=O)CCC(=O)Nc1nc2ccc(NC(=O)c3cc(Br)c(Br)[nH]3)cc2s1
IC50 (DNA gyrase subunit B [1]): 0.87 µM
IC50 (DNA gyrase subunit B [2]): > 100 µM

COC(=O)CC(=O)Nc1nc2ccc(NC(=O)c3cc(Cl)c(Cl)[nH]3)cc2s1
IC50 (DNA gyrase subunit B [1]): 7.9 µM
IC50 (DNA gyrase subunit B [2]): > 100 µM

O=C(O)CCC(=O)Nc1ccc2nc(NC(=O)c3cc(Br)c(Br)[nH]3)sc2c1
IC50 (DNA gyrase subunit B [1]): 0.033 µM
IC50 (DNA gyrase subunit B [2]): > 100 µM

CCOC(=O)C(=O)Nc1ccc2nc(NC(=O)c3cc(Br)c(Br)[nH]3)sc2c1
IC50 (DNA gyrase subunit B [1]): 29 µM
IC50 (DNA gyrase subunit B [2]): > 100 µM

COC(=O)CC(=O)Nc1nc2ccc(NC(=O)c3cc(Br)c(Br)[nH]3)cc2s1
IC50 (DNA gyrase subunit B [1]): 0.24 µM
IC50 (DNA gyrase subunit B [2]): > 100 µM

O=C(O)CC(=O)Nc1ccc2nc(NC(=O)c3cc(Cl)c(Cl)[nH]3)sc2c1
IC50 (DNA gyrase subunit B [1]): 0.12 µM
IC50 (DNA gyrase subunit B [2]): 8.5 µM

COC(=O)CCC(=O)Nc1ccc2nc(NC(=O)c3cc(Cl)c(Cl)[nH]3)sc2c1
IC50 (DNA gyrase subunit B [1]): 35 µM
IC50 (DNA gyrase subunit B [2]): > 100 µM

CCOC(=O)C(=O)Nc1nc2ccc(NC(=O)c3cc(Br)c(Br)[nH]3)cc2s1
IC50 (DNA gyrase subunit B [1]): 0.081 µM
IC50 (DNA gyrase subunit B [2]): > 100 µM

COC(=O)CCC(=O)Nc1ccc2nc(NC(=O)c3cc(Br)c(Br)[nH]3)sc2c1
IC50 (DNA gyrase subunit B [1]): 7 µM
IC50 (DNA gyrase subunit B [2]): > 100 µM

O=C(O)CCC(=O)Nc1nc2ccc(NC(=O)c3cc(Br)c(Br)[nH]3)cc2s1
IC50 (DNA gyrase subunit B [1]): 0.057 µM
IC50 (DNA gyrase subunit B [2]): > 100 µM

O=C(O)C(=O)Nc1ccc2nc(NC(=O)c3cc(Cl)c(Cl)[nH]3)sc2c1
IC50 (DNA gyrase subunit B [2]): 0.51 µM

Nc1ccc2nc(NC(=O)c3cc(Cl)c(Cl)[nH]3)sc2c1
IC50 (DNA gyrase subunit B [1]): > 100 µM
IC50 (DNA gyrase subunit B [2]): > 100 µM
